# Results: patent publication US10695334B2, “Heteroaromatic carboxamide derivatives as plasma kallikrein inhibitors” (Boehringer Ingelheim International GmbH, priority 2018, dated 2020)
# Counter-ions that a name gives are not always drawn.
# Biological target: Human PKK (Homo sapiens (Human), UniProt P03952)
# Assay: Inhibition of PKK, endpoint assay (human PKK)
# Assay type: biochemical
# Conditions: substrate H-Pro-Phe-Arg-AMC, 1 h room temperature
# Experimental: Subsequently, PPACK II (Calbiochem) was added as a stop solution to achieve a final concentration of 1 μM and fluorescence was measured using an Envision Reader (PerkinElmer) with the wavelength excitation setting of 355 nm and the wavelength emission setting of 460 nm.
# Chain of Human PKK (P03952 391-638): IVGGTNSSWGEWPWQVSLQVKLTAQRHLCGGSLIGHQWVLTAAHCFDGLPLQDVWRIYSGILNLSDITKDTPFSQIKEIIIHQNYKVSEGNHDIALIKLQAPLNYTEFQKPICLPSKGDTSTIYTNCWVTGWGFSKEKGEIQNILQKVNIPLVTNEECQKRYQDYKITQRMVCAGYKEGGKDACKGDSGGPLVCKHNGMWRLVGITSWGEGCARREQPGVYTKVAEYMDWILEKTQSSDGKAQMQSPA
# Chain of Human PKK (P03952 20-390 partner): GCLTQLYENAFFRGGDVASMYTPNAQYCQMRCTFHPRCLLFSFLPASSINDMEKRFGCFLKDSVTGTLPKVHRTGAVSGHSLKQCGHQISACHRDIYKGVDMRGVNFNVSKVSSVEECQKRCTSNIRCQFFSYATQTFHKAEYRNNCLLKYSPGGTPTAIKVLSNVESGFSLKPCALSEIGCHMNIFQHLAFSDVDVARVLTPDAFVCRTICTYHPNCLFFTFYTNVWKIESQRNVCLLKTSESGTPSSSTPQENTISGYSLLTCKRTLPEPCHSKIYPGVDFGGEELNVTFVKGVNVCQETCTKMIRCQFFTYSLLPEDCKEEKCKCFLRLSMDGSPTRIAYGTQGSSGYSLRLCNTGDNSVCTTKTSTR
row,IC50,Compound
1,572 nM,"Cc1nc(N2CC3(CC(O)C3)C2)ccc1Cn1cc(C(=O)N[C@@H]2CCc3c2n[nH]c3C)cn1 [Example 76, 1-[(6-{6-Hydroxy-2-azaspiro[3.3]heptan-2-yl}-2-methylpyridin-3-yl)methyl]-N-[(6R)-3-methyl-2H,4H,5H,6H-cyclopenta[c]pyrazol-6-yl]-1H-pyrazole-4-carboxamide]"
2,2 nM,"Cc1nc(N2CC3C(C2)C3(F)F)ncc1Cn1cc(C(=O)N[C@@H]2CCc3c2n[nH]c3C)cn1 (stereo partly drawn) [Example 84, 1-[(2-{6,6-Difluoro-3-azabicyclo[3.1.0]hexan-3-yl}-4-methylpyrimidin-5-yl)methyl]-N-[(6R)-3-methyl-2H,4H,5H,6H-cyclopenta[c]pyrazol-6-yl]-1H-pyrazole-4-carboxamide, TFA salt]"
3,4 nM,"Cc1nc(N2CC3C(C2)C3(F)F)ncc1Cn1cc(C(=O)N[C@@H]2CCc3c(C)n[nH]c32)nn1 (stereo partly drawn) [Example 85, 1-[(2-{6,6-Difluoro-3-azabicyclo[3.1.0]hexan-3-yl}-4-methylpyrimidin-5-yl)methyl]-N-[(6R)-3-methyl-1H,4H,5H,6H-cyclopenta[c]pyrazol-6-yl]-1H-1,2,3-triazole-4-carboxamide]"
4,0.9 nM,"Cc1nc(N2CC3CC3C2)ccc1Cn1cc(C(=O)N[C@@H]2CCc3c2n[nH]c3C)c(C(C)(C)O)n1 (stereo partly drawn) [Example 106, 1-[(6-{3-Azabicyclo[3.1.0]hexan-3-yl}-2-methylpyridin-3-yl)methyl]-3-(2-hydroxypropan-2-yl)-N-[(6R)-3-methy-2H,4H,5H,6H-cyclopenta[c]pyrazol-6-yl]-1H-pyrazole-4-carboxamide]"
5,38 nM,"Cc1nc(N2CC(F)(C(F)(F)F)C2)ccc1Cn1cc(C(=O)N[C@@H]2CCc3c2n[nH]c3C)cn1 [Example 74, 1-({6-[3-Fluoro-3-(trifluoromethyl)azetidin-1-yl]-2-methylpyridin-3-yl}methyl)-N-[(6R)-3-methyl-2H,4H,5H,6H-cyclopenta[c]pyrazol-6-yl]-1H-pyrazole-4-carboxamide]"
6,9 nM,"Cc1nc(N2CC3C(C2)C3(C)C)ccc1Cn1cc(C(=O)N[C@@H]2CCc3c2n[nH]c3C)cn1 (stereo partly drawn) [Example 80, 1-[(6-{6,6-Dimethyl-3-azabicyclo[3.1.0]hexan-3-yl]-2-methylpyridin-3-yl)methyl]-N-[(6R)-3-methyl-2H,4H,5H,6H-cyclopenta[c]pyrazol-6-yl]-1H-pyrazole-4-carboxamide]"
7,7 nM,"Cc1nc(N2CC3CC3C2)ccc1Cn1cnc(C(=O)N[C@@H]2CCc3c2n[nH]c3C)n1 (stereo partly drawn) [Example 107, 1-[(6-{3-Azabicyclo[3.1.0]hexan-3-yl}-2-methylpyridin-3-yl)methyl]-N-[(6R)-3-methyl-2H,4H,5H,6H-cyclopenta[c]pyrazol-6-yl]-1H-1,2,4-triazole-3-carboxamide]"
8,17 nM,"Cc1nc(N2CC(C(F)(F)F)C2)ccc1Cn1cc(C(=O)N[C@@H]2CCc3c2n[nH]c3C)cn1 [Example 69, N-[(6R)-3-Methyl-2H,4H,5H,6H-cyclopenta[c]pyrazol-6-yl]-1-({2-methyl-6-[3-(trifluoromethyl)azetidin-1-yl]pyridin-3-yl}methyl)-1H-pyrazole-4-carboxamide]"
9,161 nM,"Cc1nc(N2CC(c3ccc(F)cc3)C2)ccc1Cn1cc(C(=O)N[C@@H]2CCc3c2n[nH]c3C)cn1 [Example 81, 1-({6-[3-(4-Fluorophenyl)azetidin-1-yl]-2-methylpyridin-3-yl}methyl)-N-[(6R)-3-methyl-2H,4H,5H,6H-cyclopenta[c]pyrazol-6-yl]-1H-pyrazole-4-carboxamide]"
10,17 nM,"Cc1nc(N2CCC3(CCOC3)C2)ccc1Cn1cc(C(=O)N[C@@H]2CCc3c2n[nH]c3C)cn1 (stereo partly drawn) [Example 73, N-[(6R)-3-Methyl-2H,4H,5H,6H-cyclopenta[c]pyrazol-6-yl]-1-[(2-methyl-6-{2-oxa-7-azaspiro[4.4]nonan-7-yl}pyridin-3-yl)methyl]-1H-pyrazole-4-carboxamide]"

# Second part, the molecule before the results:
row,Compound,IC50
1,"Cc1nc(N2CC(C#N)C2)ccc1Cn1cc(C(=O)N[C@@H]2CCc3c2n[nH]c3C)cn1 [Example 57, 1-{[6-(3-Cyanoazetidin-1-yl)-2-methylpyridin-3-yl]methyl}-N-[(6R)-3-methyl-2H,4H,5H,6H-cyclopenta[c]pyrazol-6-yl]-1H-pyrazole-4-carboxamide]",37 nM
2,"COCc1nn(Cc2cnc(N3CC4C(C3)C4(F)F)nc2C)cc1C(=O)N[C@@H]1CCc2c(C)n[nH]c21 (stereo partly drawn) [Example 26, 1-[(2-{6,6-Difluoro-3-azabicyclo[3.1.0]hexan-3-yl}-4-methylpyrimidin-5-yl)methyl]-3-(methoxy-methyl)-N-[(6R)-3-methyl-1H,4H,5H,6H-cyclo-penta[c]pyrazol-6-yl]-1H-pyrazole-4-carboxamide]",3 nM
3,"Cc1nc(N2CC3(CC3)C2)ccc1Cn1cc(C(=O)N[C@@H]2CCc3c(C)n[nH]c32)c(C)n1 [Example 24, 1-[(6-{5-Azaspiro[2.3]hexan-5-yl}-2-methylpyridin-3-yl)methyl]-3-methyl-N-[(6R)-3-methyl1H,4H,5H,6H-cyclopenta[c]pyrazol-6-yl]-1H-pyrazole-4-carboxamide]",2 nM
4,"Cc1nc(N2CC3(CC3)C2)ncc1Cn1cc(C(=O)N[C@@H]2CCc3c(C)n[nH]c32)cn1 [Example 30, 1-[(2-{5-Azaspiro[2.3]hexan-5-yl}-4-methyl-pyrimidin-5-yl)methyl]-N-[(6R)-3-methyl-1H,4H,5H,6H-cyclopenta[c]pyrazol-6-yl]-1H-pyrazole-4-carboxamide]",8 nM
5,"Cc1nc(N2CCCCCC2)ccc1Cn1cc(C(=O)N[C@@H]2CCc3c2n[nH]c3C)cn1 [Example 65, 1-{[6-(Azepan-1-yl)-2-methylpyridin-3-yl]methyl}-N-[(6R)-3-methyl-2H,4H,5H,6H-cyclopenta[c]pyrazol-6-yl]-1H-pyrazole-4-carboxamide]",10 nM
6,"COC1(C)CN(c2ccc(Cn3cc(C(=O)N[C@@H]4CCc5c4n[nH]c5C)cn3)c(C)n2)C1 [Example 44, 1-{[6-(3-Methoxy-3-methylazetidin-1-yl)-2-methylpyridin-3-yl]methyl}-N-[(6R)-3-methyl-2H,4H,5H,6H-cyclopenta[c]pyrazol-6-yl]-1H-pyrazole-4-carboxamide]",20 nM
7,"Cc1nc(N2CC3CC2C3)ccc1Cn1cc(C(=O)N[C@@H]2CCc3c2n[nH]c3C)cn1 [Example 49, 1-[(6-{2-Azabicyclo[2.1.1]hexan-2-yl}-2-methylpyridin-3-yl)methyl]-N-[(6R)-3-methyl-2H,4H,5H,6H-cyclopenta[c]pyrazol-6-yl]-1H-pyrazole-4-carboxamide]",42 nM
8,"Cc1nc(N2CC3(CC3)C2)ncc1Cn1cc(C(=O)N[C@@H]2CCc3c(C)n[nH]c32)c(C)n1 [Example 29, 1-[(2-{5-Azaspiro[2.3]hexan-5-yl}-4-methyl-pyrimidin-5-yl)methyl]-3-methyl-N-[(6R)-3-methyl-1H,4H,5H,6H-cyclpenta[c]pyrazol-6-yl]-1H-pyrazole-4-carboxamide]",7 nM
9,"Cc1nc(N2CC3CC(C2)O3)ccc1Cn1cc(C(=O)N[C@@H]2CCc3c2n[nH]c3C)cn1 [Example 64, N-[(6R)-3-Methyl-2H,4H,5H,6H-cyclopenta[c]pyrazol-6-yl]-1-[(2-methyl-6-{6-oxa-3-azabicyclo[3.1.1]heptan-3-yl}pyridin-3-yl)methyl]-1H-pyrazole-4-carboxamide]",32 nM
10,"Cc1nc(N2CC(n3cccn3)C2)ccc1Cn1cc(C(=O)N[C@@H]2CCc3c2n[nH]c3C)cn1 [Example 58, N-[(6R)-3-Methyl-2H,4H,5H,6H-cyclopenta[c]pyrazol-6-yl]-1-({2-methyl-6[3-(1H-pyrazol-1-yl)azetidin-1-yl]pyridin-3-yl}methyl)-1H-pyrazole-4-carboxamide]",20 nM
11,"Cc1nc(N2CC3C(C2)C3(F)F)ccc1Cn1cc(C(=O)N[C@H]2CCc3c(C)n[nH]c32)cn1 (stereo partly drawn) [Example 4, 1-[(6-{6,6-Difluoro-3-azabicyclo[3.1.0]hexan-3-yl}-2-methylpyridin-3-yl)methyl]-N-[(6S)-3-methyl-1H,4H,5H,6H-cyclopenta[c]pyrazol-6-yl]-1H-pyrazole-4-carboxamide]",9 nM
12,"Cc1nc(N2CCCCC2)ccc1Cn1cc(C(=O)N[C@@H]2CCc3c2n[nH]c3C)cn1 [Example 34, N-[(6R)-3-Methyl-2H,4H,5H,6H-cyclopenta[c]pyrazol-6-yl]-1-{[2-methyl-6-(piperidin-1-yl)pyridin-3-yl]methyl}-1H-pyrazole-4-carboxamide]",11 nM
13,"Cc1nc(N2CCC(C(F)(F)F)C2)ccc1Cn1cc(C(=O)N[C@@H]2CCc3c2n[nH]c3C)cn1 (stereo partly drawn) [Example 60, N-[(6R)-3-Methyl-2H,4H,5H,6H-cyclopenta[c]pyrazol-6-yl]-1-({2-methyl-6-[3-(trifluoromethyl)pyrrolidin-1-yl]pyridin-3-yl}methyl)-1H-pyrazole-4-carboxamide]",7 nM
14,"Cc1nc(N2C[C@@H]3[C@@H](CO)[C@@H]3C2)ccc1Cn1cc(C(=O)N[C@@H]2CCc3c2n[nH]c3C)cn1 [Example 38, 1-({6-[(1R,5S,6R)-6-(Hydroxymethyl)-3-azabicyclo[3.1.0]hexan-3-yl]-2-methylpyridin-3-yl}methyl)-N-[(6R)-3-methyl-2H,4H,5H,6H-cyclopenta[c]pyrazol-6-yl]-1H-pyrazole-4-carboxamide]",26 nM
15,"Cc1nc(N2CC(C)(C#N)C2)ccc1Cn1cc(C(=O)N[C@@H]2CCc3c2n[nH]c3C)cn1 [Example 41, 1-{[6-(3-Cyano-3-methylazetidin-1-yl)-2-methylpyridin-3-yl]methyl}-N-[(6R)-3-methyl-2H,4H,5H,6H-cyclopenta[c]pyrazol-6-yl]-1H-pyrazole-4-carboxamide]",13 nM
16,"Cc1nc(N2CC(CO)C2)ccc1Cn1cc(C(=O)N[C@@H]2CCc3c2n[nH]c3C)cn1 [Example 56, 1-({6-[3-(Hydroxymethyl)azetidin-1-yl]-2-methylpyridin-3-yl}methyl)-N-[(6R)-3-methyl-2H,4H,5H,6H-cyclopenta[c]pyrazol-6-yl]-1H-pyrazole-4-carboxamide]",56 nM
